Test [1] is described as follows: A Cell Based Secondary Assay To Explore Cytotoxicity of Compounds that Sensitize Mycobacterium Tuberculosis to Beta-Lactam Antibiotics. The test is classed as functional.
For another test, the system named is Vero. The test is described as follows: mammalian cell viability reduction – secondary assay, cytotoxicity control for West Nile virus antiviral project, dose response (AID 1650). The test is classed as functional. The settings on record: Chlorocebus sabaeus.
Test [2] can be described thus: HIV-1 Vif–A3G interaction blockers – biochemical, TR-FRET, GST-Vif 1-94, biotin-A3G peptide, dose response retest, primary screen (AID 1117319).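 Note: TR-FRET signal of purified GST-Vif binding a biotinylated A3G peptide; inhibitors lower the FRET signal by blocking Vif and A3G binding.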 The test is classed as functional.
Test [3] has as its system BJ. In words: BJ-TERT fibroblast viability loss – cell-based, RAS-independent, luminescence, dose response (AID 1933). The test is classed as functional. The settings on record: Homo sapiens.
The subject of test [4] is BJ. The test is described as follows: cells. The test is classed as functional, cell-based. The settings on record: Homo sapiens.
Test [5] can be described thus: Trypanosoma cruzi growth suppression in host cells – NIH3T3 host cells, beta-gal luminescence, confirmation (AID 2044).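 Note: intracellular parasites grown in NIH/3T3 mouse fibroblasts as host cells; luminescent beta-galactosidase reporter signal from transgenic T. cruzi replicating inside host cells; inhibitors lower the luminescence signal.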 The test is classed as functional, cell-based.
Test [6] in a line: NIH3T3 cell viability loss – ATP luminescence, mouse fibroblasts, counter-screen, dose response (AID 2010).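 Note: cells exposed to compound for about 90 hours before reading.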 The test is classed as functional, cell-based.
Test [7] relates to BJ. In words: BJ-TERT-LT-ST fibroblast viability loss – cell-based, RAS-independent, luminescence, dose response (AID 1935).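 Note: BJ fibroblasts immortalized with TERT plus LT and ST oncogenes.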 The test is classed as functional. The settings on record: Homo sapiens.
Test [8] in a line: DRD fibroblast viability loss – cell-based, non-viral oncogenic, luminescence, dose response (AID 1934). The test is classed as functional. The settings on record: Homo sapiens.
In the next test the test system is INS1. The test is described as follows: INS-1E survival protection against cytokine death – cell-based, luminescence, retest, dose response (AID 449756).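 Note: cell death triggered by IL-1 beta plus TNF-alpha plus IFN-gamma mixture; protective hits raise ATP signal compared with cytokine alone wells.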 The settings on record: Rattus norvegicus. The test is classed as functional.
In the next test the target is T1, Galanin receptor type 3 (Homo sapiens, UniProt O60755).
T1 sequence (O60755 whole entry): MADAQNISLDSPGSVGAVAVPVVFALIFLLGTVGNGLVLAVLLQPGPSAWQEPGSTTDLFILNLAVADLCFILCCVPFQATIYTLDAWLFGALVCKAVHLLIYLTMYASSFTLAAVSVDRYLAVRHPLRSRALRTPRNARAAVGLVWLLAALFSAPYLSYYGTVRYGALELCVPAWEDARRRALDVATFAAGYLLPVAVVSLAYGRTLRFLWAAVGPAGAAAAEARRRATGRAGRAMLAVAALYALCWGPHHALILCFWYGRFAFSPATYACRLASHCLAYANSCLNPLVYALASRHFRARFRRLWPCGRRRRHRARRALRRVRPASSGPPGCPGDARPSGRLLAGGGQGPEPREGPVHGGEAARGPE
In words: Fluorescence-based cell-based primary high throughput dose response assay to identify antagonists of the Galanin Receptor 3 (GalR3). The test is classed as functional.

Test [9] is described as follows: cells. The test is classed as functional, cell-based. As to conditions: HEK-CNG.
The next test has as its target Paired box protein Pax-8 (Homo sapiens, UniProt Q06710). In words: PAX8 transcriptional activity inhibition in RMG-I – RMG-I cells, luciferase, cherry-pick, dose response (AID 687027).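 Note: luciferase reporter driven by Pax8 target thyroperoxidase promoter measured by SteadyGlo luminescence.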 The test is classed as functional, cell-based.
The target in test [10] is T2, COUP transcription factor 2 (Homo sapiens, UniProt P24468).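 Note: HEK293 cells transiently cotransfected with COUP-TFII expression vector and reporter; luciferase reporter luminescence driven by COUP-TFII from the pX2-168 reporter plasmid.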
T2 sequence (P24468 whole entry): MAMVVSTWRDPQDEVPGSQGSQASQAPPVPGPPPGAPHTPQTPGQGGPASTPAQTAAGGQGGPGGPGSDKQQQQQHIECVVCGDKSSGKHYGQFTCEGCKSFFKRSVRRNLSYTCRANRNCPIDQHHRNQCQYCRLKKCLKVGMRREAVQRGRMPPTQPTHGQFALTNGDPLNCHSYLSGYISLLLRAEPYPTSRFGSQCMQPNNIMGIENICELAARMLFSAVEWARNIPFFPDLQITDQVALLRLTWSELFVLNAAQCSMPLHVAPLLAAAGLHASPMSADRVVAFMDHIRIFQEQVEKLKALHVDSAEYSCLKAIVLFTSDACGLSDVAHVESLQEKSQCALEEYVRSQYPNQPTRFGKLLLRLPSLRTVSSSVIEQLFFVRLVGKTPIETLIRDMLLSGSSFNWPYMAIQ
In words: Luminescence-based cell-based high throughput dose response assay to identify inhibitors of COUP-TFII (NR2F2). The test is classed as functional.

For another test, the target named is T3, Aminopeptidase N (Plasmodium falciparum FcB1/Columbia, UniProt O96935).
T3 sequence (O96935 whole entry): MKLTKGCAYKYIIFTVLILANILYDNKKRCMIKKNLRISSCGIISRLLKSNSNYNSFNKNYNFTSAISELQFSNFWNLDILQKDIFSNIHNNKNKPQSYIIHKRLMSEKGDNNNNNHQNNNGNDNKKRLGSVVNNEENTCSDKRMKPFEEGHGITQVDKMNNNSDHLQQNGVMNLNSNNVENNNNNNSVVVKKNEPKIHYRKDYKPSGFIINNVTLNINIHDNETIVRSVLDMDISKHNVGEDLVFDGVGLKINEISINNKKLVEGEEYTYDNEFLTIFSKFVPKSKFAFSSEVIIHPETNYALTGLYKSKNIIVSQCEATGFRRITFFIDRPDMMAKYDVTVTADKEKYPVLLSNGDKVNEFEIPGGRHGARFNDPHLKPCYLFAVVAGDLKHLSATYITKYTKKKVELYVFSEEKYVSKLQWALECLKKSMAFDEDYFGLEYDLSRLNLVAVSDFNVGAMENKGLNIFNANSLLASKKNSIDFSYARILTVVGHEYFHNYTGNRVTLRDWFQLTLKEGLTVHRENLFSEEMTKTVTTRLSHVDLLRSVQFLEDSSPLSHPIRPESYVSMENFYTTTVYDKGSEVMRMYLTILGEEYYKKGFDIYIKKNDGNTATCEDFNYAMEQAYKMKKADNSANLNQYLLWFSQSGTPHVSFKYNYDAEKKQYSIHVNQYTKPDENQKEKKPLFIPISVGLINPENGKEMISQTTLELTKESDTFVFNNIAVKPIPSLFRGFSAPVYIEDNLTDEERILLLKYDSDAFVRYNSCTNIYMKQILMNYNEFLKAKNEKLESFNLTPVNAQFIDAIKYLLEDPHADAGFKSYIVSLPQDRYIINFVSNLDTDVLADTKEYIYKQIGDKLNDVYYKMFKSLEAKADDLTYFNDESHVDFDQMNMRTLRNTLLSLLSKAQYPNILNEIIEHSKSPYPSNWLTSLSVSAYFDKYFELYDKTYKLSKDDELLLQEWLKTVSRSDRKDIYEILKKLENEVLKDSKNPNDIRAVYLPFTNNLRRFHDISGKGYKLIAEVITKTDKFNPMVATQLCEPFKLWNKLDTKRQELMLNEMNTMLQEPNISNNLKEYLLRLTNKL
In words: malaria alanyl aminopeptidase activity blockers – biochemical, fluorogenic H-Leu-NHMec substrate, 1536-well (AID 1445). Details: species or system Plasmodium falciparum 3D7, 3D7.

Test [11] addresses FAD-linked sulfhydryl oxidase ALR (Homo sapiens, UniProt P55789). In words: ALR-catalysed DTT oxidation blockers – biochemical, H2O2 detection, luminescence, cherry-pick, dose response (AID 493248).
Test [12] deals with T4, RNA-editing ligase 1, mitochondrial (Trypanosoma brucei brucei, UniProt P86926).
T4 sequence (P86926 whole entry): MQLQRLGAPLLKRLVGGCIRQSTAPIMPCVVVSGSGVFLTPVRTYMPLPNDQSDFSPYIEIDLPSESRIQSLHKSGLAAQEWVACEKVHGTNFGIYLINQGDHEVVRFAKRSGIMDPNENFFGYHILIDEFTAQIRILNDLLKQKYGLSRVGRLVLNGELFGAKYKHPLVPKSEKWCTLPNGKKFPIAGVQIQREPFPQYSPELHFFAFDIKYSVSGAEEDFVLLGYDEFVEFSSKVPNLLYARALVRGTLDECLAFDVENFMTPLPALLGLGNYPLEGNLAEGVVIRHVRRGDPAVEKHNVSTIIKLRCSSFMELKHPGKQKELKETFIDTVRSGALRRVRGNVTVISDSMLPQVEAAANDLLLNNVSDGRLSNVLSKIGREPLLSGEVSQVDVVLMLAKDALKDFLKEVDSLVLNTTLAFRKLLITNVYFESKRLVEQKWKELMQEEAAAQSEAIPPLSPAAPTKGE
The test is described as follows: inhibition of trypanosome RNA editing ligase – biochemical, fluorescence, Trypanosoma brucei, dose response (AID 1117295). The test is classed as functional.

Test [13] is described as follows: viability of uninfected HEp-2 cells – cell-based, HTS, cytotoxicity control for RSV inhibitor project, dose response (AID 2410). The test is classed as functional. The settings on record: human respiratory syncytial virus.
The target of test [14] is T5, RNA-binding protein pos-1 (Caenorhabditis elegans, UniProt G5EF15).
T5 sequence (G5EF15 whole entry): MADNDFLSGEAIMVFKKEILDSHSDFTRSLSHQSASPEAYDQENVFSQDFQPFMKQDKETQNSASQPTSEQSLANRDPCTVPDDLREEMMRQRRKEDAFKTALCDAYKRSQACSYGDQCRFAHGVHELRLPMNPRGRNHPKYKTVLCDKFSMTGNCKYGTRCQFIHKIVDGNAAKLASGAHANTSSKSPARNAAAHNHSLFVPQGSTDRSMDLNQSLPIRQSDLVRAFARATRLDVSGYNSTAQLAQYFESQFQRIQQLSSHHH
The test is described as follows: disruptors of C. elegans POS-1 RNA interaction – biochemical, fluorescence polarization, dose response (AID 1964).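 Note: purified POS-1 fused to maltose binding protein made in E. coli; potency of compounds blocking POS-1 binding to fluorescent RNA.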

Test [15] has as its target T6, Zinc finger protein mex-5 (Caenorhabditis elegans, UniProt Q9XUB2).
T6 sequence (Q9XUB2 whole entry): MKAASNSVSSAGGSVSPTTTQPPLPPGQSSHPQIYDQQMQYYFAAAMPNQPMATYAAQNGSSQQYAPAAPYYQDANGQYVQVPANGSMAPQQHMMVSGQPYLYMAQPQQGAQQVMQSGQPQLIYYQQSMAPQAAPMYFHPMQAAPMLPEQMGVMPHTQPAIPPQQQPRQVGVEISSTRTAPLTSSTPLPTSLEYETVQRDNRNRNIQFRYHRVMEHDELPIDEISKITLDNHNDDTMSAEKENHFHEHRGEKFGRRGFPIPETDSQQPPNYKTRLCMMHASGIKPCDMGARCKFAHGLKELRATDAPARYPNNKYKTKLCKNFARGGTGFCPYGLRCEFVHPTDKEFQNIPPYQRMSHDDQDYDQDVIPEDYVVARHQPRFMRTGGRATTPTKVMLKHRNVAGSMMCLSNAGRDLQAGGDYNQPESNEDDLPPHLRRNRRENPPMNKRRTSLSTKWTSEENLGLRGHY
In words: potency of MEX-5 RNA-binding blockers – biochemical, C. elegans, fluorescence polarization, dose response (AID 1960).

Test [16] has as its target Induced myeloid leukemia cell differentiation protein Mcl-1 (Homo sapiens, UniProt Q07820). The test is classed as functional.
A short description of test [17]: cells.

This is an account of results in ChEMBL document CHEMBL1201862, “PubChem BioAssay data set” (2004).

Calls of active or inactive are those of the source.

Chain of Induced myeloid leukemia cell differentiation protein Mcl-1 (Q07820 whole entry): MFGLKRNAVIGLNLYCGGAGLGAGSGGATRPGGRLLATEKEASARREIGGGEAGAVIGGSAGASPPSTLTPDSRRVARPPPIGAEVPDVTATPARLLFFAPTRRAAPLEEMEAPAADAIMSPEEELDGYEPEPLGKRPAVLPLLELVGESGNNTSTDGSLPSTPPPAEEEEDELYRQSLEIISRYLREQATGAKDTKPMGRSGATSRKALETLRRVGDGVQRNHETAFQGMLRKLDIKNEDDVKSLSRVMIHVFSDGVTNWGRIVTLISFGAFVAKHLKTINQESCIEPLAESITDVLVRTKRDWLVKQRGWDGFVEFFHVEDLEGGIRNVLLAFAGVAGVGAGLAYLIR
Chain of Paired box protein Pax-8 (Q06710 whole entry): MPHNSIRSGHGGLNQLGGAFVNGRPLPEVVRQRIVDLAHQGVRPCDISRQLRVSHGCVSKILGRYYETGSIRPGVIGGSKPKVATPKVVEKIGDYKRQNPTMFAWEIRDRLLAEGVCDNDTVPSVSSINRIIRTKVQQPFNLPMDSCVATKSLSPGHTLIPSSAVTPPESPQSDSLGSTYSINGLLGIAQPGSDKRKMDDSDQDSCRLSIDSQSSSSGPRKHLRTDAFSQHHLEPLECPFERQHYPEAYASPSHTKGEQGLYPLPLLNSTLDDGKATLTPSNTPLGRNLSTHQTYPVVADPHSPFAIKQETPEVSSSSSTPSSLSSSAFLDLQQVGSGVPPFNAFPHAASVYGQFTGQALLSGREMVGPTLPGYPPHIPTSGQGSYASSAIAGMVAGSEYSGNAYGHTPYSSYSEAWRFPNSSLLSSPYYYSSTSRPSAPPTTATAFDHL
Chain of FAD-linked sulfhydryl oxidase ALR (P55789 whole entry): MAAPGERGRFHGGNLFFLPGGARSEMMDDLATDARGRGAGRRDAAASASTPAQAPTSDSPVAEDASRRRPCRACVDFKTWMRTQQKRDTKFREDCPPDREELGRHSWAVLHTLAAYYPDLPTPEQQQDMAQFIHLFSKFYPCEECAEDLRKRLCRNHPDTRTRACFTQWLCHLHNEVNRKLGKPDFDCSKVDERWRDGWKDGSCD

For the compound `O=C(Nc1cccc(C(F)(F)F)c1)N1CCC(c2nc(-c3ccc(F)cc3)no2)CC1`, the CC50 in [1] is > 40 µM (active); with Vero it was 12.6 µM (active).
As for `CCOc1ccc(NC(=O)C2CCCN(S(=O)(=O)c3c(C)n[nH]c3C)C2)cc1` (stereo not drawn), in [2], the half-inhibitory concentration (IC50) was > 100 µM (active).
Take `O=C(NC(Nc1nc2ccc([N+](=O)[O-])cc2s1)(C(F)(F)F)C(F)(F)F)c1cccnc1`: the concentration for a half-maximal effect (EC50) was 8.85 µM (inconclusive) in the test with BJ [3]; 4.98 µM (active) with BJ [4]; 1.38 µM (active) in test [5]; < 6 µM (inconclusive) in test [6]; 11.4 µM (active) in the test with BJ [7]; 10.4 µM (active) in [8]. Further, in “cells [9]”, the EC50 was > 29.9 µM (inactive). Moreover, the AC50 is 2.6 µM (active) in the test on INS1 and 1.86 µM (active) at Paired box protein Pax-8. Moreover, the figures for the IC50 (on Galanin receptor type 3; in test [10]) were > 1.11 µM (active) and 8.8 µM (active), respectively.
With `Nc1ccc(-c2nc3ccc(N)cc3[nH]2)cc1`, the 50% inhibitory concentration (IC50) was 49.9 µM (active) at Aminopeptidase N and 46.1 µM (inactive) in test [12]. Further, the AC50 in test [11] is 2.55 µM (active).
As for `Cc1cc(C)c2c(c1)C1C=CCC1C(c1ccc(S(=O)(=O)N3CCOCC3)cc1)N2` (stereo not drawn), the CC50 in test [13] was 15.6 µM (active). For the same compound, the EC50 in test [14] and in test [15] was > 300 µM (not active) each time. In addition, the results for the IC50 (in [16]; in “cells [17]”) were 2.74 µM (active) and 11.7 µM (active), respectively.
Take `COC(=O)C1=C(C)N(Cc2ccccc2C(F)(F)F)C(NCc2cccc(C(F)(F)F)c2)=NC1c1ccc(C(F)(F)F)cc1` (stereo not drawn): the IC50 in test [12] was > 96.6 µM (inactive).
